Key:
Type in all cases: in vivo
barnyard grass [1] = test: Test Example 1: weedkilling efficacy, preemergent weed treatment in the submerged state; A: barnyard grass; settings: treatment dosage 252 g/ha
Method in brief: (§1)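 Pre-emergence paddy test: weed seeds sown in submerged alluvial soil (4 cm water), 2.5-leaf rice transplanted, water-diluted emulsion applied to water surface at sowing at stated g/ha. Scored at 3 weeks, greenhouse 25–30 °C.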

bulrush [2] = test: Test Example 1: weedkilling efficacy, preemergent weed treatment in the submerged state; B: bulrush; settings: treatment dosage 252 g/ha
Method in brief: as §1

oval-leafed pondweed [3] = test: Test Example 1: weedkilling efficacy, preemergent weed treatment in the submerged state; C: oval-leafed pondweed; settings: treatment dosage 252 g/ha
Method in brief: as §1

transplanted rice = test: Test Example 1: preemergent weed treatment in the submerged state, effect on crop; a: transplanted rice; settings: treatment dosage 252 g/ha
Method in brief: as §1

barnyard grass [4] = test: Test Example 2: weedkilling efficacy, growth period weed treatment in the submerged state; A: barnyard grass; settings: treatment dosage 252 g/ha
Method in brief: (§2)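 Seedlings at 1-2 leaves in 4 cm-deep submerged alluvial soil received emulsion formulations on the water surface, dosed per hectare; effects were judged 3 weeks on.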

bulrush [5] = test: Test Example 2: weedkilling efficacy, growth period weed treatment in the submerged state; B: bulrush; settings: treatment dosage 252 g/ha
Method in brief: as §2

oval-leafed pondweed [6] = test: Test Example 2: weedkilling efficacy, growth period weed treatment in the submerged state; C: oval-leafed pondweed; settings: treatment dosage 252 g/ha
Method in brief: as §2

crabgrass = test: Test Example 3: weedkilling efficacy through soil treatment; D: crabgrass; settings: soil treatment, treatment dosage 315 g/ha
Method in brief: (§3)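 Crop and weed responses were judged three weeks after a uniform surface spray of the water-diluted emulsion at the given g/ha rate. Seeds sat beneath about 1.5 cm of sterilized diluvial soil, and boxes stood in a greenhouse at 25 to 30° C.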

green foxtail = test: Test Example 3: weedkilling efficacy through soil treatment; E: green foxtail; settings: soil treatment, treatment dosage 315 g/ha
Method in brief: as §3

wild oat = test: Test Example 3: weedkilling efficacy through soil treatment; G: wild oat; settings: soil treatment, treatment dosage 315 g/ha
Method in brief: as §3

black-grass = test: Test Example 3: weedkilling efficacy through soil treatment; H: black-grass; settings: soil treatment, treatment dosage 315 g/ha
Method in brief: as §3

Italian ryegrass = test: Test Example 3: weedkilling efficacy through soil treatment; I: Italian ryegrass; settings: soil treatment, treatment dosage 315 g/ha
Method in brief: as §3

Indian mallow = test: Test Example 3: weedkilling efficacy through soil treatment; K: Indian mallow; settings: soil treatment, treatment dosage 315 g/ha
Method in brief: as §3

redroot pigweed = test: Test Example 3: weedkilling efficacy through soil treatment; L: redroot pigweed; settings: soil treatment, treatment dosage 315 g/ha
Method in brief: as §3

fig-leafed goosefoot = test: Test Example 3: weedkilling efficacy through soil treatment; M: fig-leafed goosefoot; settings: soil treatment, treatment dosage 315 g/ha
Method in brief: as §3

chickweed = test: Test Example 3: weedkilling efficacy through soil treatment; N: chickweed; settings: soil treatment, treatment dosage 315 g/ha
Method in brief: as §3

catchweed = test: Test Example 3: weedkilling efficacy through soil treatment; O: catchweed; settings: soil treatment, treatment dosage 315 g/ha
From the text: Weedkilling Efficacy Test Through Soil Treatment
Sterilized diluvial soil was introduced into 21 cm long, 13 cm wide, 7 cm deep plastic boxes, and seeds of crabgrass, green foxtail, barnyard grass, wild oat, black-grass, Italian ryegrass, common wind-grass, Indian mallow, redroot pigweed, fig-leafed goosefoot, chickweed, catchweed, birds-eye speedwell, corn, soybean, rice, wheat, beet and rapeseed were each spot-sown, and covered with about 1.5 cm of soil. Next, emulsions of compounds of the present invention prepared according to compounding example 2 were diluted with water to give the specified dosages, and applied uniformly onto the soil surface with a small sprayer. The plants were grown by placing the plastic boxes in a greenhouse at 25 to 30° C., and 3 weeks after the pesticide treatment the effect on each type of plant was investigated on the basis of the assessment criteria of test example 1.
A: barnyard grass, B: bulrush, C: oval-leafed pondweed, D: crabgrass, E: green foxtail, F: barnyard grass, G: wild oat, H: black-grass, I: Italian ryegrass, J: common wind-grass, K: Indian mallow, L: redroot pigweed, M: fig-leafed goosefoot, N: chickweed, O: catchweed, p: birds-eye speedwell, a: transplanted rice, b: directly sown rice, c: corn, d: soybean, e: wheat, f: beet, g: rapeseed
Further, pesticide dosage (g/ha) indicates the concentration regulated such that treatment was with only the stated number of grams (g), when calculated per hectare (ha).

birds-eye speedwell = test: Test Example 3: weedkilling efficacy through soil treatment; p: birds-eye speedwell; settings: soil treatment, treatment dosage 315 g/ha
Method in brief: as §3

directly sown rice = test: Test Example 3: soil treatment, effect on crop; b: directly sown rice; settings: soil treatment, treatment dosage 315 g/ha
Method in brief: as §3

corn = test: Test Example 3: soil treatment, effect on crop; c: corn; settings: soil treatment, treatment dosage 315 g/ha
Method in brief: as §3

soybean = test: Test Example 3: soil treatment, effect on crop; d: soybean; settings: soil treatment, treatment dosage 315 g/ha
Method in brief: as §3

wheat = test: Test Example 3: soil treatment, effect on crop; e: wheat; settings: soil treatment, treatment dosage 315 g/ha
Method in brief: as §3

beet = test: Test Example 3: soil treatment, effect on crop; f: beet; settings: soil treatment, treatment dosage 315 g/ha
Method in brief: as §3

SMILES | A: barnyard grass, weed kill grade (barnyard grass [1]) | B: bulrush, weed kill grade (bulrush [2]) | C: oval-leafed pondweed, weed kill grade (oval-leafed pondweed [3]) | a: transplanted rice, effect on crop grade (transplanted rice) | A (barnyard grass) weedkilling efficacy grade (barnyard grass [4]) | B (bulrush) weedkilling efficacy grade (bulrush [5]) | C (oval-leafed pondweed) weedkilling efficacy grade (oval-leafed pondweed [6]) | D: crabgrass, weedkilling efficacy grade (crabgrass) | E: green foxtail, weedkilling efficacy grade (green foxtail) | G: wild oat, weedkilling efficacy grade (wild oat) | H: black-grass, weedkilling efficacy grade (black-grass) | I: Italian ryegrass, weedkilling efficacy grade (Italian ryegrass) | K: Indian mallow, weedkilling efficacy grade (Indian mallow) | L: redroot pigweed, weedkilling efficacy grade (redroot pigweed) | M: fig-leafed goosefoot, weedkilling efficacy grade (fig-leafed goosefoot) | N: chickweed, weedkilling efficacy grade (chickweed) | P: birds-eye speedwell, weedkilling efficacy grade (birds-eye speedwell) | b: directly sown rice, effect on crop grade (directly sown rice) | c: corn, effect on crop grade (corn) | d: soybean, effect on crop grade (soybean) | other results
CC(C)(C(=O)Nc1cc(F)ccn1)N1COCN(c2ccccc2)C1=O [A-2-03] | 5 (weed kill ratio 90% or more, (practically complete withering)) | 5 (weed kill ratio 90% or more, (practically complete withering)) | 5 (weed kill ratio 90% or more, (practically complete withering)) | 1 (weed kill ratio 5% or more, less than 20%) | 5 (weed kill ratio 90% or more, (practically complete withering)) | 5 (weed kill ratio 90% or more, (practically complete withering)) | 3 (weed kill ratio 40% or more, less than 70%) | 5 (weed kill ratio 90% or more, (practically complete withering)) | 5 (weed kill ratio 90% or more, (practically complete withering)) | 5 (weed kill ratio 90% or more, (practically complete withering)) | 5 (weed kill ratio 90% or more, (practically complete withering)) | 5 (weed kill ratio 90% or more, (practically complete withering)) | 0 (weed kill ratio 5% or less (practically no effect)) | 4 (weed kill ratio 70% or more, less than 90%) | 4 (weed kill ratio 70% or more, less than 90%) | 4 (weed kill ratio 70% or more, less than 90%) | 5 (weed kill ratio 90% or more, (practically complete withering)) | 5 (weed kill ratio 90% or more, (practically complete withering)) | 3 (weed kill ratio 40% or more, less than 70%) | 0 (weed kill ratio 5% or less (practically no effect)) | O: catchweed, weedkilling efficacy grade (catchweed): 5 (weed kill ratio 90% or more, (practically complete withering)); e: wheat, effect on crop grade (wheat): 2 (weed kill ratio 20% or more, less than 40%); f: beet, effect on crop grade (beet): 0 (weed kill ratio 5% or less (practically no effect))
CC(C)(C(=O)Nc1cccc(Br)n1)N1COCN(c2ccccc2)C1=O [A-2-09] | 5 (weed kill ratio 90% or more, (practically complete withering)) | 5 (weed kill ratio 90% or more, (practically complete withering)) | 5 (weed kill ratio 90% or more, (practically complete withering)) | 0 (weed kill ratio 5% or less (practically no effect)) | 5 (weed kill ratio 90% or more, (practically complete withering)) | 5 (weed kill ratio 90% or more, (practically complete withering)) | 5 (weed kill ratio 90% or more, (practically complete withering)) | 5 (weed kill ratio 90% or more, (practically complete withering)) | 5 (weed kill ratio 90% or more, (practically complete withering)) | 5 (weed kill ratio 90% or more, (practically complete withering)) | 5 (weed kill ratio 90% or more, (practically complete withering)) | 5 (weed kill ratio 90% or more, (practically complete withering)) | 3 (weed kill ratio 40% or more, less than 70%) | 5 (weed kill ratio 90% or more, (practically complete withering)) | 4 (weed kill ratio 70% or more, less than 90%) | 4 (weed kill ratio 70% or more, less than 90%) | 5 (weed kill ratio 90% or more, (practically complete withering)) | 5 (weed kill ratio 90% or more, (practically complete withering)) | 3 (weed kill ratio 40% or more, less than 70%) | 3 (weed kill ratio 40% or more, less than 70%) | e: wheat, effect on crop grade (wheat): 1 (weed kill ratio 5% or more, less than 20%); f: beet, effect on crop grade (beet): 4 (weed kill ratio 70% or more, less than 90%)
CC(C)(C(=O)Nc1cccc(I)n1)N1COCN(c2ccccc2)C1=O [A-2-11] | 5 (weed kill ratio 90% or more, (practically complete withering)) | 5 (weed kill ratio 90% or more, (practically complete withering)) | 5 (weed kill ratio 90% or more, (practically complete withering)) | 0 (weed kill ratio 5% or less (practically no effect)) | 4 (weed kill ratio 70% or more, less than 90%) | 5 (weed kill ratio 90% or more, (practically complete withering)) | 3 (weed kill ratio 40% or more, less than 70%) | 5 (weed kill ratio 90% or more, (practically complete withering)) | 5 (weed kill ratio 90% or more, (practically complete withering)) | 2 (weed kill ratio 20% or more, less than 40%) | 5 (weed kill ratio 90% or more, (practically complete withering)) | 5 (weed kill ratio 90% or more, (practically complete withering)) | 0 (weed kill ratio 5% or less (practically no effect)) | 0 (weed kill ratio 5% or less (practically no effect)) | 3 (weed kill ratio 40% or more, less than 70%) | 4 (weed kill ratio 70% or more, less than 90%) | 4 (weed kill ratio 70% or more, less than 90%) | 3 (weed kill ratio 40% or more, less than 70%) | 0 (weed kill ratio 5% or less (practically no effect)) | 0 (weed kill ratio 5% or less (practically no effect)) | O: catchweed, weedkilling efficacy grade (catchweed): 2 (weed kill ratio 20% or more, less than 40%); e: wheat, effect on crop grade (wheat): 1 (weed kill ratio 5% or more, less than 20%); f: beet, effect on crop grade (beet): 2 (weed kill ratio 20% or more, less than 40%)

From US9738634B2, “Heterocyclic amide compound and herbicide” (SYNGENTA PARTICIPATIONS AG, priority 2013, dated 2017)
